Results published in patent US12599672B2, “KRAS proteolysis targeting chimeras” (PAQ Therapeutics Inc., priority 2023, dated 2026).

Experiments:
Format in all cases: cell-based
KRAS = biological target: T1, KRAS (Homo sapiens, UniProt P01116); assay: KRASamp MSD assay; conditions: KE39 (KRAS amplified) cells, treated with test compounds for 24 hr, MSD readout of KRAS degradation
T1 construct: endogenous in cells; host or cells: KE39 (KRAS amplified) cells
Outline: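 Degradation DC50 derived by curve fitting, with KRAS levels quantified by MSD electrochemiluminescence (capture/detection antibodies, recombinant WT KRAS standard). Lysates prepared from KE39 cells (KRAS amplified) exposed to test compounds for 24 hr.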

KRAS G12D = biological target: T2, KRAS G12D (Homo sapiens, UniProt P01116, G12D); assay: KRAS G12D HiBit assay; conditions: AsPc-1-KRAS (G12D)-HiBit-KI cell, compound treatment for 24 hours, absolute DC50
T2 construct: AsPc-1-KRAS (G12D)-HiBit-KI cell (Pharmaron); host or cells: AsPc-1-KRAS (G12D)-HiBit-KI cells (HiBiT knock-in at the endogenous KRAS locus)
T2 sequence (P01116 1-188 isoform P01116-2 G12D): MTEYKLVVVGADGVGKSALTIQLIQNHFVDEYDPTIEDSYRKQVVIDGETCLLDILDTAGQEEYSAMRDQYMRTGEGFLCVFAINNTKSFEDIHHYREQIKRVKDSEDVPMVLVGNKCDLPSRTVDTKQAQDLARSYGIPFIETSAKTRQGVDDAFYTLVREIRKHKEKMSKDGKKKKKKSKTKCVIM
Outline: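 HiBiT luminescence, detected by adding lytic buffer, substrate and LgBiT protein, served as the KRAS G12D read-out. Compounds, serially diluted 3-fold over 10 points from 0.3 mM DMSO stock, were on cells for 24 h; percent inhibition normalized to cells given 0.1% DMSO only.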

KRAS G12V = biological target: T3, KRAS G12V (Homo sapiens, UniProt P01116, G12V); assay: KRAS G12V HiBit assay; conditions: SW620-KRAS (G12V)-HiBit-KI cells, compound treatment for 24 hours, class symbols
T3 construct: SW620-KRAS (G12V)-HiBit-KI cell (Pharmaron); host or cells: SW620-KRAS (G12V)-HiBit-KI cells (HiBiT knock-in at the endogenous KRAS locus)
T3 sequence (P01116 1-188 isoform P01116-2 G12V): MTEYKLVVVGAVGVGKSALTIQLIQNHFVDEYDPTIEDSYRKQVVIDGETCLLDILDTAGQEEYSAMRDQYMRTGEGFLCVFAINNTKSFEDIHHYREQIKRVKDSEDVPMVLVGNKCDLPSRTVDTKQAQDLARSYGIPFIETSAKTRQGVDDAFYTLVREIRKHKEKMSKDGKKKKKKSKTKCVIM
Outline: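 Luminescence from lytic Nano-Glo HiBiT detection with LgBiT read KRAS G12V levels after 24 h compound exposure. Dilutions were 10-point, 3-fold, from a 0.3 mM DMSO stock. Degradation activity was normalised to cells given 0.1% DMSO alone.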

[1] = numeric bounds given in place of class symbols

T1 sequence (P01116 1-188 isoform P01116-2): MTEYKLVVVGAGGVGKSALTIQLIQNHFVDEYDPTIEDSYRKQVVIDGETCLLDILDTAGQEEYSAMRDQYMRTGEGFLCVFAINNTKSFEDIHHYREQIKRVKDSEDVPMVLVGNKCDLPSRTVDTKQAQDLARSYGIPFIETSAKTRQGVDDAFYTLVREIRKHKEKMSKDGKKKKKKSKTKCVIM

| SMILES | DC50 (KRAS) | DC50 (KRAS G12D; [1]) | DC50 (KRAS G12V) | DC50 (KRAS G12D; class symbols) |
| --- | --- | --- | --- | --- |
| C#Cc1c(F)ccc2cc(O)cc(-c3ncc4c(N5CCC[C@@](C)(O)C5)nc(OC[C@@]56CCCN5[C@H](COC(=O)N5CCC7(CC5)CCN7C5CCN(c7ccc8c(c7)n(C)c(=O)n8C7CCC(=O)NC7=O)CC5)CC6)nc4c3F)c12 (stereo partly drawn) [Compound 320, ((3S,7aS)-7a-(((7-(8-ethynyl-7-fluoro-3-hydroxynaphthalen-1-yl)-8-fluoro-4-((R)-3-hydroxy-3-methylpiperidin-1-yl)pyrido[4,3-d]pyrimidin-2-yl)oxy)methyl)hexahydro-1H-pyrrolizin-3-yl)methyl 1-(1-(1-(2,6-dioxopiperidin-3-yl)-3-methyl-2-oxo-2,3-dihydro-1H-benzo[d]imidazol-5-yl)piperidin-4-yl)-1,7-diazaspiro[3.5]nonane-7-carboxylate] | ≥ 10 nM | > 100 nM | > 100 nM |  |
| CCc1c(F)ccc2cc(O)cc(-c3ncc4c(N5CCC[C@@](C)(O)C5)nc(OC[C@@]56CCCN5[C@H](COC(=O)N5CCC(CN7CCC(c8cccc9c8n(C)c(=O)n9C8CCC(=O)NC8=O)CC7)CC5)CC6)nc4c3F)c12 (stereo partly drawn) [Compound 440, ((3S,7aS)-7a-(((7-(8-ethyl-7-fluoro-3-hydroxynaphthalen-1-yl)-8-fluoro-4-((R)-3-hydroxy-3-methylpiperidin-1-yl)pyrido[4,3-d]pyrimidin-2-yl)oxy)methyl)hexahydro-1H-pyrrolizin-3-yl)methyl 4-((4-(1-(2,6-dioxopiperidin-3-yl)-3-methyl-2-oxo-2,3-dihydro-1H-benzo[d]imidazol-4-yl)piperidin-1-yl)methyl)piperidine-1-carboxylate] | 1 to 10 nM |  | < 10 nM | < 100 nM |
| CCc1c(F)ccc2cc(O)cc(-c3ncc4c(N5CCC[C@@](C)(O)C5)nc(OC[C@@]56CCCN5[C@H](COC(=O)N5CCC7(CC5)CC(N5CCC(c8ccc9c(c8)n(C)c(=O)n9C8CCC(=O)NC8=O)CC5)C7)CC6)nc4c3F)c12 (stereo partly drawn) [Compound 159, ((3S,7aS)-7a-(((7-(8-Ethyl-7-fluoro-3-hydroxynaphthalen-1-yl)-8-fluoro-4-((R)-3-hydroxy-3-methylpiperidin-1-yl)pyrido[4,3-d]pyrimidin-2-yl)oxy)methyl)hexahydro-1H-pyrrolizin-3-yl)methyl2-(4-(1-(2,6-dioxopiperidin-3-yl)-3-methyl-2-oxo-2,3-dihydro-1H-benzo[d]imidazol-5-yl)piperidin-1-yl)-7-azaspiro[3.5]nonane-7-carboxylate] | < 1 nM |  | < 10 nM | < 100 nM |
| C#Cc1c(F)ccc2cc(O)cc(-c3ncc4c(N5CCC[C@@](C)(O)C5)nc(OC[C@@]56CCCN5[C@H](COC(=O)N5CCC57CCN(C5CCN(c8ccc9c(c8)n(C)c(=O)n9C8CCC(=O)NC8=O)CC5)CC7)CC6)nc4c3F)c12 (stereo partly drawn) [Compound 326, ((3S,7aS)-7a-(((7-(8-ethynyl-7-fluoro-3-hydroxynaphthalen-1-yl)-8-fluoro-4-((R)-3-hydroxy-3-methylpiperidin-1-yl)pyrido[4,3-d]pyrimidin-2-yl)oxy)methyl)hexahydro-1H-pyrrolizin-3-yl)methyl 7-(1-(1-(2,6-dioxopiperidin-3-yl)-3-methyl-2-oxo-2,3-dihydro-1H-benzo[d]imidazol-5-yl)piperidin-4-yl)-1,7-diazaspiro[3.5]nonane-1-carboxylate] | ≥ 10 nM | > 100 nM | > 100 nM |  |
| CCc1c(F)ccc2cc(O)cc(-c3ncc4c(N5CCC[C@@](C)(O)C5)nc(OC[C@@]56CCCN5[C@H](COC(=O)N5CCC(CN7CCC(c8ccc9c(c8)n(C)c(=O)n9C8CCC(=O)NC8=O)CC7)C5)CC6)nc4c3F)c12 (stereo partly drawn) [Compound 433, ((3S,7aS)-7a-(((7-(8-ethyl-7-fluoro-3-hydroxynaphthalen-1-yl)-8-fluoro-4-((R)-3-hydroxy-3-methylpiperidin-1-yl)pyrido[4,3-d]pyrimidin-2-yl)oxy)methyl)hexahydro-1H-pyrrolizin-3-yl)methyl 3-((4-(1-(2,6-dioxopiperidin-3-yl)-3-methyl-2-oxo-2,3-dihydro-1H-benzo[d]imidazol-5-yl)piperidin-1-yl)methyl)pyrrolidine-1-carboxylate] | 1 to 10 nM |  | < 10 nM | < 100 nM |
